Experimental data as given in patent publication US20250281478A1, “METHODS FOR PREVENTING OR TREATING KIDNEY DISEASES” (JEAMOON BEIJING CO., LTD., priority 2022, published 2025).

Experiments:
[1] = tested on: TGF-β1-induced HK-2 cells; assay: RT-PCR of fibrosis markers in TGF-β1-induced HK-2 cells; type: cell-based, human; details: 10 ng/ml TGF-β1 + LY2922470 10, 50, 500 nM, 48 hours, FIG. 7
Experimental: • Group A: Control • Group B: TGF-β1 (10 ng/ml) • Group C: TGF-β1 (10 ng/ml)+LY (10 nM) • Group D: TGF-β1 (10 ng/ml)+LY (50 nM) • Group E: TGF-1 (10 ng/ml)+LY (500 nM)
HK-2 cells were cultured in MEM supplemented with 10% FBS and 1% penicillin-streptomycin solution. The HK-2 cells were taken from liquid nitrogen and quickly thawed in a 37° C. water bath, gently agitated to thaw the cryopreservation medium. After thawing, the cell suspension was transferred to a centrifuge tube containing 3 mL of culture medium and centrifuged at 1000 rpm for 5 min at room temperature to collect the cells. The supernatant was discarded. The cell pellet was resuspended in complete medium (10% FBS) and seeded into culture dishes. The cells were gently pipetted to ensure uniform distribution and incubated at 37° C. with 5% CO2 and saturated humidity.
HK-2 cells in a logarithmic growth phase and with good viability were seeded into 24-well plates at a density of 1×10^5 cells/well. Once the cells reached 40-50% confluence, treatments were applied according to the grouping described above: Group A: HK-2 cells were cultured normally; Group B was treated with 10 ng/ml TGF-β1; Group C was treated with 10 ng/ml TGF-β1 and 10 nM LY2922470; Group D was treated with 10 ng/ml TGF-β1 and 50 nM LY2922470; and Group E was treated with 10 ng/ML TGF-β1 and 500 nM LY2922470. […]

[2] = tested on: mice with adenine-induced renal failure; assay: Survival of mice with adenine-induced renal failure; type: in vivo, C57BL/6N mice; details: for Survival Rate (%): started 1 week after start of continued 0.25% adenine diet, end of experiment; for Count after Drug Administration (surviving mice): 12 at enrollment
Experimental: • 1. Experimental Animals: C57BL/6N, 8 weeks old, SPF grade, male. • 2. Experimental Drugs: • LY2922470 (Shanghai Taoshu Biotechnology Co., Ltd.) • TAK875 (Shanghai Taoshu Biotechnology Co., Ltd.)
1) Preparation of TAK875: A total of 27 mg of TAK875 powder was accurately weighed using an analytical balance and dissolved in 9 mL of 0.8% CMC-Na solution. The mixture was sonicated for 5 minutes to form a 3 mg/mL white suspension. The suspension was stored at 4° C. for later use.
2) Preparation of LY2922470: A total of 80 mg of LY2922470 yellow crystals was added to 200 μL of DMSO to form a clear yellow solution. The solution was gradually added in batches to 10 mL of 0.8% CMC-Na solution. After heating and sonication for 5 hours, an 8 mg/mL white suspension of LY2922470 was obtained. The suspension was stored at 4° C. for later use.
Eight-week-old male C57BL/6N mice were acclimatized for one week and then randomly divided into six groups. Except for the control group, all mice were fed a 0.25% adenine-containing diet for modelling. The control group received a normal diet. The mice had free access to food. One week after model induction, mice in each group were orally administered the corresponding drug once daily in the afternoon, according to their group assignment. The control group and the model group received vehicle under a same condition. During the treatment period, the adenine-containing diet was continued. Mouse survival was monitored until the end of the experiment.

[3] = tested on: mice with adenine-induced renal failure; assay: Blood urea nitrogen (BUN) in adenine-induced renal failure mice; type: in vivo, C57BL/6N mice; details: for BUN after modeling for 3 weeks (after drug administration for 2 weeks) / BUN after modeling for 1 week (before drug administration): mean ± SD
Experimental: • a) Control group: Fed with adenine-free feed; other procedures were the same as those in the model group. • b) Model group: Fed with feed containing 0.25% adenine for modelling. • c) LY-10 mg/kg group: Model+LY2922470 (10 mg/kg, p.o., QD). • d) LY-30 mg/kg group: Model+LY2922470 (30 mg/kg, p.o., QD). • e) LY-60 mg/kg group: Model+LY2922470 (60 mg/kg, p.o., QD). • f) TAK875 group: Model+TAK875 (30 mg/kg, p.o., QD).
Except for the control group, all other mice were fed with a diet containing 0.25% adenine for modelling. The control group was fed with a normal diet. All mice were allowed free access to food. One week after modeling, each group of mice was administered the respective treatment via oral gavage once daily in the afternoon for two consecutive weeks. The control group and the model group received vehicle under a same condition. The adenine-containing diet was continuously administered for modeling throughout the treatment period until the end of the experiment. The physical condition of the mice was monitored, and body weight was measured and recorded weekly. Blood samples were collected from the orbital venous plexus at 1 week (post-modeling) and 3 weeks (after 2 weeks of treatment). Serum was separated for the measurement of serum creatinine (CRE) and blood urea nitrogen (BUN). At the end of the two-week treatment, renal function of each group was assessed using a TGFR renal function monitoring and smart analysis system. After testing, tissues were collected from the mice to confirm the efficacy of the treatment.
Statistical analyses were performed using GraphPad Prism 8.0 software. Continuous data of each group were expressed as mean+SD. One-way ANOVA was used for multi-group comparisons, and Student's t-test was used for comparisons between two groups. A p-value<0.05 was considered statistically significant. For categorical data, chi-square tests were used to compare between groups, with p<0.05 indicating a statistically significant difference.
Mice were fed a 0.25% adenine-containing diet. After one week, the mice were treated with LY2922470 or TAK875. During the treatment period, the adenine-containing diet was continued for modeling. After three weeks of adenine feeding (i.e., two weeks of drug administration), blood samples were collected from the mice, and serum was isolated for CREA and BUN measurements.

[4] = tested on: mice with two-week adenine-induced renal failure; assay: Glomerular filtration rate in mice with two-week adenine-induced renal failure; type: in vivo, C57BL/6N mice; details: adenine diet replaced with normal chow after two weeks; LY2922470 p.o.; FIG. 5
Source text: Therefore, the modeling protocol was redesigned to re-evaluate the therapeutic effect of LY2922470 on renal failure (the adenine diet was replaced with normal chow after two weeks of feeding; other conditions remained unchanged).

For `CC#C[C@@H](CC(=O)O)c1ccc(OCc2ccc(CN3CCCc4cccc(OC)c43)s2)cc1` [LY2922470], the “Expression level of Fibronectin (RT-PCR) compared to the TGF-β1 group” value [1] was “dose-dependent decrease”, the “Expression level of α-SMA (RT-PCR) compared to the TGF-β1 group” value [1] was “dose-dependent decrease” and the “Survival Rate (%)” value ([2]; LY2922470 10 mg/kg p.o. QD) was 0%. The “Count after Drug Administration (surviving mice)” value (“Count after Drug Administration” below) ([2]; LY2922470 10 mg/kg p.o. QD) was 0, the “Day of adenine feeding by which all mice had died” value ([2]; LY2922470 10 mg/kg p.o. QD, deaths began on day 20) was no more than 27 days and the “Survival Rate (%)” value ([2]; LY2922470 30 mg/kg p.o. QD, 30 mg/kg) was 100%. For the same molecule, the “Survival Rate (%)” value ([2]; LY2922470 30 mg/kg p.o. QD, listed as LY) was 100%, the “Count after Drug Administration” value ([2]; LY2922470 30 mg/kg p.o. QD) was 12 and the “Final survival rate relative to the TAK875 group” value ([2]; LY2922470 30 mg/kg vs TAK875 30 mg/kg) was “double”. For the same molecule, the “Survival Rate (%)” value ([2]; LY2922470 60 mg/kg p.o. QD, listed as LY) was 50%, the “Count after Drug Administration” value ([2]; LY2922470 60 mg/kg p.o. QD) was 6 and the “Dose with optimal effect (survival)” value ([2]; from Table 1 survival data, p.o.) was 30 mg/kg/day. The “BUN level compared with the model group” value ([3]; LY2922470 30 mg/kg p.o. QD for 2 weeks) was “statistically significant reduction”, the “BUN after modeling for 3 weeks (after drug administration for 2 weeks)” value ([3]; LY2922470 30 mg/kg p.o. QD) was 15.15 ± 4.53 mmol/L and the “BUN after modeling for 3 weeks (after drug administration for 2 weeks)” value ([3]; LY2922470 60 mg/kg p.o. QD) was 13.85 ± 1.33 mmol/L. The “Serum BUN level compared with the model group” value ([3]; LY2922470 at different doses p.o. QD for 2 weeks) was “reduced”, the “BUN after modeling for 1 week (before drug administration)” value (“BUN after modeling for 1 week” for short) ([3]; baseline of the LY2922470 10 mg/kg group) was 10.34 ± 3.55 mmol/L and the “BUN after modeling for 1 week” value ([3]; baseline of the LY2922470 30 mg/kg group) was 10.25 ± 3.42 mmol/L. The “BUN after modeling for 1 week” value ([3]; baseline of the LY2922470 60 mg/kg group) was 10.40 ± 3.83 mmol/L and the “Renal function (GFR) compared with the model group” value [4] was “significantly improved”.
